Laboratory results reported in paper PMC6530361, “Anti-tumor Efficacy Assessment of the Sigma Receptor Pan Modulator RC-106. A Promising Therapeutic Tool for Pancreatic Cancer” (Frontiers in Pharmacology, 2019).

Test system: Panc-1 spheroids
Experiment: CellTiter-Glo 3D cell viability assay
Type: cell-based
Conditions: Homo sapiens, PANC-1, 48 h, 3D spheroids, diameter up to 600 μm, 12.5–50 μM
Experimental: Spheroids were obtained as previously described ([Zanoni et al., 2016]). Briefly, a rotatory cell culture system RCCS (Synthecon Inc., Houston, TX, United States) was used. The rotary systems were placed inside a humidified 37°C, 5% CO2 incubator and all procedures were performed in sterile conditions. Single cell suspensions of about 1 × 10^6 cells/ml of Panc-1 were placed in the 50 mL rotating chamber at an initial speed of 12 rpm. Speed was increased as cells formed aggregates to avoid sedimentation. The culture medium was changed every 4 days and tumor spheroids with an equivalent diameter ranging from about 500–1300 μm were obtained in around 15 days. After formation, spheroids were transferred into a 96-well low-attachment culture plates (Corning Inc., Corning, NY, United States; one spheroid/well), containing 100 μL of fresh culture medium per well.
Cell viability of Panc-1 spheroids was measured using a 3D cell viability assay (Promega, Milan, Italy). Briefly, homogeneous spheroids were removed from the 96-well low-attachment culture plate and placed separately in single wells of a 96-well opaque culture plate (BD Falcon). CellTiter-Glo® 3D reagent was added to each well and the luminescence signal was read after 30 min with the GloMax® bioluminescent reader (Promega).
The analysis of morphological parameters were performed as previously described ([Piccinini et al., 2017]). […]

Question: With `C/C(=C\CN1CCC(Cc2ccccc2)CC1)c1ccc2ccccc2c1` [RC-106, (E)-4-benzyl-1-(3-(naphthalen-2-yl)but-2-en-1-yl)piperidine] as the compound, how does the IC50 read?
Answer: 39.6 µM
